Assay: Pharmacokinetics of aprepitant emulsion versus fosaprepitant solution, intravenous
Type: in vivo, male Sprague-Dawley rats
Settings: rat, 14 mg/kg aprepitant equivalent
Method: The pharmacokinetics of an aprepitant emulsion prepared according to Example 1 was determined. Two groups of six male Sprague-Dawley rats each were injected intravenously with, respectively, fosaprepitant in solution or aprepitant emulsion prepared according to Example 1. All drugs were administered at an effective concentration equivalent to 14 mg/kg aprepitant. Blood from all rats was collected at the appropriate time intervals and processed to plasma by centrifugation. Plasma samples were analyzed by LC-MS/MS for aprepitant and fosaprepitant, as appropriate. A plasma concentration versus time curve of aprepitant for the emulsion described in Example 1 and for fosaprepitant is presented in FIG. 2 (fosaprepitant in solution, •; aprepitant emulsion, ▴). The curves indicate the initial aprepitant level reached immediately after injection of the aprepitant emulsion was almost 3 times higher than the initial aprepitant level reached immediately after injection of the fosaprepitant solution.

For `C[C@@H](O[C@H]1OCCN(Cc2nc(O)n(P(=O)(O)O)n2)[C@H]1c1ccc(F)cc1)c1cc(C(F)(F)F)cc(C(F)(F)F)c1` [fosaprepitant], the “Conversion of fosaprepitant to aprepitant” value was “delay in the conversion of fosaprepitant to aprepitant”.

Source: patent publication US20190231688A1, “METHOD OF ADMINISTERING EMULSION FORMULATIONS OF AN NK-1 RECEPTOR ANTAGONIST” (Heron Therapeutics, Inc., priority 2018, published 2019)
